Measured values reported in the NIST ThermoML archive (doi:10.1021/je700140j).
Numbers after ± are expanded uncertainties.

Experiment: xn = mol fraction of the nth substance listed
Conditions: for mass density / viscosity: 100.8 kPa, Liquid; for surface tension liquid-gas: Ring tensiometer

OCCc1ccccc1 [2-phenylethanol] + CC(C)O
Conditions	mass density, 308.15 K [kg/m3]	mass density, 318.15 K [kg/m3]	surface tension liquid-gas, 318.15 K [mN/m]	viscosity, 308.15 K [mPa·s]	viscosity, 318.15 K [mPa·s]
x2 = 0	–	1000.98 ± 0.36	38.35 ± 0.56	–	5.232 ± 0.071
x2 = 0.05	–	994.22 ± 0.35	37.2 ± 0.55	–	4.953 ± 0.068
x2 = 0.1	–	986.78 ± 0.35	36.13 ± 0.53	–	4.645 ± 0.064
x2 = 0.15	–	978.99 ± 0.36	35.05 ± 0.52	–	4.366 ± 0.059
x2 = 0.2	–	970.82 ± 0.37	33.97 ± 0.5	–	4.103 ± 0.056
x2 = 0.25	970.19 ± 0.36	962.28 ± 0.37	32.88 ± 0.49	5.341 ± 0.071	3.85 ± 0.052
x2 = 0.3	961.31 ± 0.37	953.36 ± 0.38	31.8 ± 0.47	4.969 ± 0.067	3.6 ± 0.049
x2 = 0.35	952.04 ± 0.38	943.99 ± 0.39	30.75 ± 0.46	4.621 ± 0.062	3.362 ± 0.046
x2 = 0.4	942.3 ± 0.39	934.2 ± 0.4	29.7 ± 0.44	4.286 ± 0.058	3.132 ± 0.042
x2 = 0.45	932.05 ± 0.4	923.92 ± 0.42	28.68 ± 0.43	3.964 ± 0.053	2.912 ± 0.04
x2 = 0.5	921.29 ± 0.42	913.06 ± 0.44	27.68 ± 0.41	3.67 ± 0.049	2.713 ± 0.037
x2 = 0.55	909.98 ± 0.43	901.7 ± 0.45	26.68 ± 0.4	3.389 ± 0.046	2.524 ± 0.034
x2 = 0.6	898.08 ± 0.44	889.7 ± 0.46	25.7 ± 0.39	3.124 ± 0.042	2.342 ± 0.032
x2 = 0.65	885.47 ± 0.46	877.03 ± 0.48	24.83 ± 0.38	2.876 ± 0.039	2.162 ± 0.029
x2 = 0.7	872.12 ± 0.48	863.6 ± 0.49	24 ± 0.36	2.634 ± 0.035	1.989 ± 0.027
x2 = 0.75	857.98 ± 0.49	849.39 ± 0.51	23.2 ± 0.35	2.407 ± 0.032	1.823 ± 0.025
x2 = 0.8	842.99 ± 0.52	834.3 ± 0.53	22.45 ± 0.35	2.201 ± 0.03	1.665 ± 0.023
x2 = 0.85	827.04 ± 0.54	818.29 ± 0.56	21.7 ± 0.34	2.009 ± 0.027	1.526 ± 0.021
x2 = 0.9	810.09 ± 0.57	801.28 ± 0.58	20.97 ± 0.33	1.859 ± 0.025	1.415 ± 0.019
x2 = 0.95	792 ± 0.6	783.08 ± 0.61	20.18 ± 0.32	1.693 ± 0.023	1.298 ± 0.018
